Experimental data reported in the supplement of paper PMC12823440, “Inhibitors supercharge kinase turnover through native proteolytic circuits” (Nature, 2025).
± gives the uncertainty stated by the source.

Columns and labels:
Conditions in all cases: lysate: 5-cell-line mix (COLO-205, K562, SK-N-BE(2), MV-4-11, OVCAR-8)
[1] = target: T1, FECH (UniProt P22830); assay: apparent Kd (Kinobeads competition)
T1 sequence (whole entry): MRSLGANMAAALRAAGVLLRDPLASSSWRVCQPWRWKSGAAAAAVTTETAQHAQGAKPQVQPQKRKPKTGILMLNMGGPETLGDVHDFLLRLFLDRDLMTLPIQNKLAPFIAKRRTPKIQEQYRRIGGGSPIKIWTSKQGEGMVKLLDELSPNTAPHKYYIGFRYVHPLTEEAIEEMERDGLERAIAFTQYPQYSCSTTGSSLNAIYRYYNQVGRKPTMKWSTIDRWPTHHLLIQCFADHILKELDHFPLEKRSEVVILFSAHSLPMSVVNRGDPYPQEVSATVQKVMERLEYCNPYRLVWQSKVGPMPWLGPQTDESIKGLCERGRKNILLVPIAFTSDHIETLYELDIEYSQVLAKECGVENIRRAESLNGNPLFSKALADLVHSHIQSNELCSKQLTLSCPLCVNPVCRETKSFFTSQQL

[2] = target: T2, PAG1 (UniProt Q9NWQ8); assay: apparent Kd (Kinobeads competition)
T2 sequence (whole entry): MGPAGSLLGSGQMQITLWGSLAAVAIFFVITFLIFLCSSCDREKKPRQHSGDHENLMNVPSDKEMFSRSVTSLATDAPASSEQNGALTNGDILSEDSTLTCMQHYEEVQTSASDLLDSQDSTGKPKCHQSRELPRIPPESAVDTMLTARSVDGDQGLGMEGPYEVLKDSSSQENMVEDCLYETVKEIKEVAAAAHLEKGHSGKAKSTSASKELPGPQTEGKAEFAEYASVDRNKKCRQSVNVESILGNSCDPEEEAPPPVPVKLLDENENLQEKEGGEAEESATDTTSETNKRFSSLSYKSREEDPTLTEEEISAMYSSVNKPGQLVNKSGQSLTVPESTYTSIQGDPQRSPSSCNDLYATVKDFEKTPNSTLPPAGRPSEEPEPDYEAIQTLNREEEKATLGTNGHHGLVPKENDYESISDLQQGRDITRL

[3] = target: T3, BCR (UniProt P11274); assay: apparent Kd (Kinobeads competition)
T3 sequence (whole entry): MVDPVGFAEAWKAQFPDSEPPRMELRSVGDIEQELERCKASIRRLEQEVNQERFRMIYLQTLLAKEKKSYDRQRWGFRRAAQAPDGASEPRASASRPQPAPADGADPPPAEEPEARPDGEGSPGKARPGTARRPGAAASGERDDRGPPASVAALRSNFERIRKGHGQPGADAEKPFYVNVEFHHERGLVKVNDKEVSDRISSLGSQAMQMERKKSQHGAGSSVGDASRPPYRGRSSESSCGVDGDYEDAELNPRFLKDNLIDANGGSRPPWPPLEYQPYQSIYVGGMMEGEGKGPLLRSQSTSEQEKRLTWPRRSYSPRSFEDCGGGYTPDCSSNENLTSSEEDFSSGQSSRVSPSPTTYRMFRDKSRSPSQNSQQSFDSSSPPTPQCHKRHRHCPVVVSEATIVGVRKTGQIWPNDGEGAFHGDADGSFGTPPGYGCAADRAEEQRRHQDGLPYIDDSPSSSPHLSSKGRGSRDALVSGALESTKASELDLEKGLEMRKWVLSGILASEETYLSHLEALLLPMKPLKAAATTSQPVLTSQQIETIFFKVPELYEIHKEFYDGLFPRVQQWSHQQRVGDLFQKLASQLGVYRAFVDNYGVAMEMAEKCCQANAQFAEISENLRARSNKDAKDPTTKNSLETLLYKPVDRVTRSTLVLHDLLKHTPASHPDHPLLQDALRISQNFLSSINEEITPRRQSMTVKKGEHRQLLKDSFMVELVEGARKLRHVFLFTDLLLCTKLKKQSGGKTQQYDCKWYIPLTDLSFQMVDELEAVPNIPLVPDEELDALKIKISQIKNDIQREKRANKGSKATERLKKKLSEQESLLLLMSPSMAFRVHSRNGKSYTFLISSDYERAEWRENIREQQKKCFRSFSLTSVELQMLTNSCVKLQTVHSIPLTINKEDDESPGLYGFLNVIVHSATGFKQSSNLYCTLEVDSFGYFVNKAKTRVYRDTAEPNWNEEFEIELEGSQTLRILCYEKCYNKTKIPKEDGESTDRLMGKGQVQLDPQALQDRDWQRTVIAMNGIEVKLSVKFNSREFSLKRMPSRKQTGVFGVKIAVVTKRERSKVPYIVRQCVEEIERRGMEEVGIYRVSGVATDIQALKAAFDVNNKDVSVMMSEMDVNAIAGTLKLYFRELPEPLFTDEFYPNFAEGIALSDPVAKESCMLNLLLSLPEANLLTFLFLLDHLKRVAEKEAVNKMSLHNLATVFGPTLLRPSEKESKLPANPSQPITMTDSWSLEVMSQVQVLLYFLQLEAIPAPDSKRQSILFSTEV

[4] = target: UNC119 (UniProt Q13432); assay: apparent Kd (Kinobeads competition)
[5] = target: ABL1 (UniProt P00519); assay: EC50 for competition of Kinobead binding
Chain of ABL1 (P00519 whole entry): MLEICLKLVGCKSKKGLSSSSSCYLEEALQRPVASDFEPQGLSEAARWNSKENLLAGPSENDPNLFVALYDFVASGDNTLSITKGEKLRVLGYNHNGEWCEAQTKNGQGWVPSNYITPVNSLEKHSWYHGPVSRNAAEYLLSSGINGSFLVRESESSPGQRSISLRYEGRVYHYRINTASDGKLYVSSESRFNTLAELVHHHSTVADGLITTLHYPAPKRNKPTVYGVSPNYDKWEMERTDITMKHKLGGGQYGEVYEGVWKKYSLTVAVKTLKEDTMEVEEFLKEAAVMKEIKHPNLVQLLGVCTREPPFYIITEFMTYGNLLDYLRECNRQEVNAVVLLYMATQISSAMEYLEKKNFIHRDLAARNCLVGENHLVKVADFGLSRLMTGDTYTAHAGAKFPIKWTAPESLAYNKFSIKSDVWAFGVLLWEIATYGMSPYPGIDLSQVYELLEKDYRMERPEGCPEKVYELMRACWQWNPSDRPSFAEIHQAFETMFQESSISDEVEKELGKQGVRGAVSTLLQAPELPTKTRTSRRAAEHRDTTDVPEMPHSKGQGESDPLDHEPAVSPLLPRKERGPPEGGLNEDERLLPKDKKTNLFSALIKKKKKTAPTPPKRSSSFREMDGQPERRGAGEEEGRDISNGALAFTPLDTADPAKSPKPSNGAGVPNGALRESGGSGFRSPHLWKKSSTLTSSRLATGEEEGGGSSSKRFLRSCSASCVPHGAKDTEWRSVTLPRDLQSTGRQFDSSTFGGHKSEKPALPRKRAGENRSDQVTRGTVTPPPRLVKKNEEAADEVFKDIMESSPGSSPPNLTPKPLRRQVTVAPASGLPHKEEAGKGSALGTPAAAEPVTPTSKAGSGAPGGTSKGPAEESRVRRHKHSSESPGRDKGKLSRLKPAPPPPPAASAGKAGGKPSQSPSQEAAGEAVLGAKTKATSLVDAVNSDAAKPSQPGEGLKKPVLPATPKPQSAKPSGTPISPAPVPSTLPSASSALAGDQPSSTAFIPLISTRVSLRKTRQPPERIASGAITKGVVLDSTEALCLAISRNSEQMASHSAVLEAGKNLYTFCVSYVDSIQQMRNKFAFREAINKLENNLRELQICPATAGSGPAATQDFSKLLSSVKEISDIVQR

[6] = target: BTK (UniProt Q06187); assay: EC50 for competition of Kinobead binding
Chain of BTK (Q06187 whole entry): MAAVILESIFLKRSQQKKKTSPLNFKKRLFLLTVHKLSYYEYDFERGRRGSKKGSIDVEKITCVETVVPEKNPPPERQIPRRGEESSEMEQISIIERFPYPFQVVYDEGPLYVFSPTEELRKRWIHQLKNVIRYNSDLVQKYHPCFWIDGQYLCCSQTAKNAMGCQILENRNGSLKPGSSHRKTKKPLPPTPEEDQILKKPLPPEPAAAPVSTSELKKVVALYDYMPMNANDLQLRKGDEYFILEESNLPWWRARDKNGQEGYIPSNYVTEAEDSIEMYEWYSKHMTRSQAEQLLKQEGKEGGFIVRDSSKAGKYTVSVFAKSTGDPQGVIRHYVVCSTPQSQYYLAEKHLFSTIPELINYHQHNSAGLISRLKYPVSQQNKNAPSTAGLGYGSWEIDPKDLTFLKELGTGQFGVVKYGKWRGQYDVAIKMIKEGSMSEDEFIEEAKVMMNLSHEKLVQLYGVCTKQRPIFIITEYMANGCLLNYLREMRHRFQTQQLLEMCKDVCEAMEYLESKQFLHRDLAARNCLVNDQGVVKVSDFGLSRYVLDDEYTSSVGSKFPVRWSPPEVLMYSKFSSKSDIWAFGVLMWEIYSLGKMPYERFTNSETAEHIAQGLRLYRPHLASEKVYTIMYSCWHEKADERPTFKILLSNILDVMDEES

[7] = target: ABL2 (UniProt P42684); assay: EC50 for competition of Kinobead binding
Chain of ABL2 (P42684 whole entry): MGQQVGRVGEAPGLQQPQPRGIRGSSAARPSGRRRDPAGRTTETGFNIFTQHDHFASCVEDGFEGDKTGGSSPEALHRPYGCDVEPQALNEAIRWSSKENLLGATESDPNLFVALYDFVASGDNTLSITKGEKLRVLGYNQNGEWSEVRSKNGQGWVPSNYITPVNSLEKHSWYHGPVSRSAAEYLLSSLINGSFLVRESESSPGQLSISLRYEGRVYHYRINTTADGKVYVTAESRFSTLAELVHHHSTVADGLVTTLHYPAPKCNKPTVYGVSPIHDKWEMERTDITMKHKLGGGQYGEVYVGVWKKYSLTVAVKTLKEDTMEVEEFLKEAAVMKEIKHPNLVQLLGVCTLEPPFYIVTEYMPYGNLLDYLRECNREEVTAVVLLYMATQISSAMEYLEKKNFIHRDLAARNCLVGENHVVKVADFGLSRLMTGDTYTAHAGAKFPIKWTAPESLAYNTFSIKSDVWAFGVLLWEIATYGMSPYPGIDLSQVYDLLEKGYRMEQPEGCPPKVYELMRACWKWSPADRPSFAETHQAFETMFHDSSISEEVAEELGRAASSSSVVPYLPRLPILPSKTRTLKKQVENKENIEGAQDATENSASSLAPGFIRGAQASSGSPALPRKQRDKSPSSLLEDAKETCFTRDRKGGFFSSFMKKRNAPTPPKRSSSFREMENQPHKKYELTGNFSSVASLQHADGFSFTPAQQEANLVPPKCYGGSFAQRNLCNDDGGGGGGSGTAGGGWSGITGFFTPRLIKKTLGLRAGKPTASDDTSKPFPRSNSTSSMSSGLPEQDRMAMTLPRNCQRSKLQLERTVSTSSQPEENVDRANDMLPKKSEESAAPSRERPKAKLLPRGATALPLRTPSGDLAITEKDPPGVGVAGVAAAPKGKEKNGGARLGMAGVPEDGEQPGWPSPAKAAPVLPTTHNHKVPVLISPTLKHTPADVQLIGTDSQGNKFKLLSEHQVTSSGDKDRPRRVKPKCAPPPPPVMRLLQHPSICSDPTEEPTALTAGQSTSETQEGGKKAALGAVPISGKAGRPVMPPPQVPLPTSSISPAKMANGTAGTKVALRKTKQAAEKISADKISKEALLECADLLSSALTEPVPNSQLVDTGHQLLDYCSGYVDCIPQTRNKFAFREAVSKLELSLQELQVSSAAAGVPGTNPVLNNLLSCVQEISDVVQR

[8] = target: FRK (UniProt P42685); assay: EC50 for competition of Kinobead binding
Chain of FRK (P42685 whole entry): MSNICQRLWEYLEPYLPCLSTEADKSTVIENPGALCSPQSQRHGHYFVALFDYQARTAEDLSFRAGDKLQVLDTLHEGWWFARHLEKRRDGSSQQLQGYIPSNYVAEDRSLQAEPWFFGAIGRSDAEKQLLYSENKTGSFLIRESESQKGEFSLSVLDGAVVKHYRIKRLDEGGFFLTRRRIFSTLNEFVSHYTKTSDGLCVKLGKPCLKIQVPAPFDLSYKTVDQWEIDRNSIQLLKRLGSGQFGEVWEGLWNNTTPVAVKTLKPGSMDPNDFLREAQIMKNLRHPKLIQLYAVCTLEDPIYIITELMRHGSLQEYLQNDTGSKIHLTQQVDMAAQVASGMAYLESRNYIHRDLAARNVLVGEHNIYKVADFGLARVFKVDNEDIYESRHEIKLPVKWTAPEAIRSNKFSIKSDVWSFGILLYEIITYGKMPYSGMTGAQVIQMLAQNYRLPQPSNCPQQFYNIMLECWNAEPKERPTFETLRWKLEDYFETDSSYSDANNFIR

[9] = target: T2, PAG1; assay: EC50 for competition of Kinobead binding
[10] = target: T3, BCR; assay: EC50 for competition of Kinobead binding
[11] = target: T4, MAP4K3 (UniProt Q8IVH8); assay: EC50 for competition of Kinobead binding
T4 sequence (whole entry): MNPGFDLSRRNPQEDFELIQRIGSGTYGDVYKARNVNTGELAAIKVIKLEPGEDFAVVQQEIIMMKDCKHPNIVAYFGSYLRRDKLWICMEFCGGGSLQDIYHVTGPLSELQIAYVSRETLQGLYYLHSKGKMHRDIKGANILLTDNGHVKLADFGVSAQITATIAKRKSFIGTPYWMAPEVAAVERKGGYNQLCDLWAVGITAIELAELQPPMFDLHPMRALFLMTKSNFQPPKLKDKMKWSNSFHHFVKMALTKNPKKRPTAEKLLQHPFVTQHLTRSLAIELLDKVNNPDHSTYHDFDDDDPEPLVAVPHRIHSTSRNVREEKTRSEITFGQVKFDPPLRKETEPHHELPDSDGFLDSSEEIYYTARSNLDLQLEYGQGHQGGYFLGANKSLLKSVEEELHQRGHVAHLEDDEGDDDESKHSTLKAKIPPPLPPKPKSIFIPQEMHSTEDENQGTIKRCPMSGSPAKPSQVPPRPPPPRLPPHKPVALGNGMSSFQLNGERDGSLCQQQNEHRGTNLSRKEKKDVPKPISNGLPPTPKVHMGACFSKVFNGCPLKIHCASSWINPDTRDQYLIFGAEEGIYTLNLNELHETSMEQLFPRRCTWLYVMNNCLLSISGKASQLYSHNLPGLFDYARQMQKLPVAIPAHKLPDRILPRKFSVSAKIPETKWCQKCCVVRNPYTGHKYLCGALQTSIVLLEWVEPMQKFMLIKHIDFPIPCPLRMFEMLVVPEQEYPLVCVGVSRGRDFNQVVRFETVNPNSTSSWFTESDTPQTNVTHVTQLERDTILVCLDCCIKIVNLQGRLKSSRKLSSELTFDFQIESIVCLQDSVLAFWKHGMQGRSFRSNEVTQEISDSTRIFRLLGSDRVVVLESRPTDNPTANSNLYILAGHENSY

[12] = target: UNC119 (UniProt Q13432); assay: EC50 for competition of Kinobead binding

COc1ccc2c(C(=O)Nc3ccc(NC(=O)c4nn(C5CCN(C(=O)CC(C)(C)C#N)CC5)c5ccc(F)cc45)cc3Cl)cnn2c1 [Src Inhibitor 3]
Kd [1]: 6350 nM | Kd [2]: 48.4 nM | Kd [3]: 127 nM | Kd [4]: 24.1 nM | EC50 [5]: 1530 ± 2600 nM | EC50 [6]: 4250 ± 2700 nM | EC50 [7]: 332 ± 170 nM | EC50 [8]: 17600 ± 34000 nM | EC50 [9]: 70.9 ± 11 nM | EC50 [10]: 790 ± 430 nM | EC50 [11]: 14300 ± 28000 nM | EC50 [12]: 904 ± 250 nM
